Assays:
Test in all cases: biochemical
[1] = target: T1, panel of 374 wild-type kinases (Homo sapiens, UniProt O95382); conditions: read-out: % Enzyme Activity (relative to DMSO controls), MEKK6
T1 construct: purchased Reaction Biology Corporation
T1 sequence (O95382 1-1288): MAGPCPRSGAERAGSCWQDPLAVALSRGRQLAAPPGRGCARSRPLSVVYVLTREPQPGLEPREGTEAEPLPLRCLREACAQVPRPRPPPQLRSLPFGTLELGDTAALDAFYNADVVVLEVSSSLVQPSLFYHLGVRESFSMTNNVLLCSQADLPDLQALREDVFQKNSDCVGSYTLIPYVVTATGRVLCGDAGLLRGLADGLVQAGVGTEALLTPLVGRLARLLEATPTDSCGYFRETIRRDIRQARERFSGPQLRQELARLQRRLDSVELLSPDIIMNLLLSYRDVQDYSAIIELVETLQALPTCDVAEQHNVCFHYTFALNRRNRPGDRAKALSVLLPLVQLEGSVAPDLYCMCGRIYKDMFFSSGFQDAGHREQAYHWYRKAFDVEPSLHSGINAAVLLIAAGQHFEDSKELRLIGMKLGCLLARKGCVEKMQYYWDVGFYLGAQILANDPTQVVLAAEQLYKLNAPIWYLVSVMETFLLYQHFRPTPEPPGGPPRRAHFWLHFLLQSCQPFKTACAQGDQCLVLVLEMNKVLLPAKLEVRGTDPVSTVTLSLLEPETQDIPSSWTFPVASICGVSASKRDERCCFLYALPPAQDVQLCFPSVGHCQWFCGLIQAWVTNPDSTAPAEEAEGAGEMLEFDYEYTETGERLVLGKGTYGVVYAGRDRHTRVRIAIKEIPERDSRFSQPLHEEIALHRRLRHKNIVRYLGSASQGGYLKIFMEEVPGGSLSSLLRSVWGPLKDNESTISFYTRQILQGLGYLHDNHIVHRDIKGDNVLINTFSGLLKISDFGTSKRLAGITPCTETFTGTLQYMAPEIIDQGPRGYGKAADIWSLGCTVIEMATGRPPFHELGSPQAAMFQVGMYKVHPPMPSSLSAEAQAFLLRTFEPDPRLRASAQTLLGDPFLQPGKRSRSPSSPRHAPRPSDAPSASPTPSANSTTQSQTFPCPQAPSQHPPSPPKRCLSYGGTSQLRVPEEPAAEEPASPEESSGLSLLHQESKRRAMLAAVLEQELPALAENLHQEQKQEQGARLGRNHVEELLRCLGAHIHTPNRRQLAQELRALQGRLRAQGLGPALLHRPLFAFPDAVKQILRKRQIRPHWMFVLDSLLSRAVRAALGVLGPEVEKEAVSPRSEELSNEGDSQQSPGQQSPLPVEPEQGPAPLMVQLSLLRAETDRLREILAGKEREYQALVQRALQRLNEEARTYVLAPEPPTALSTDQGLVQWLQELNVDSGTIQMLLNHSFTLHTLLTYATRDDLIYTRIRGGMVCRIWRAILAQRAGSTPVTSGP

[2] = target: T2, panel of 374 wild-type kinases (Homo sapiens, UniProt P53671); conditions: read-out: % Enzyme Activity (relative to DMSO controls), LIMK2
T2 construct: purchased Reaction Biology Corporation
T2 sequence (P53671 whole entry): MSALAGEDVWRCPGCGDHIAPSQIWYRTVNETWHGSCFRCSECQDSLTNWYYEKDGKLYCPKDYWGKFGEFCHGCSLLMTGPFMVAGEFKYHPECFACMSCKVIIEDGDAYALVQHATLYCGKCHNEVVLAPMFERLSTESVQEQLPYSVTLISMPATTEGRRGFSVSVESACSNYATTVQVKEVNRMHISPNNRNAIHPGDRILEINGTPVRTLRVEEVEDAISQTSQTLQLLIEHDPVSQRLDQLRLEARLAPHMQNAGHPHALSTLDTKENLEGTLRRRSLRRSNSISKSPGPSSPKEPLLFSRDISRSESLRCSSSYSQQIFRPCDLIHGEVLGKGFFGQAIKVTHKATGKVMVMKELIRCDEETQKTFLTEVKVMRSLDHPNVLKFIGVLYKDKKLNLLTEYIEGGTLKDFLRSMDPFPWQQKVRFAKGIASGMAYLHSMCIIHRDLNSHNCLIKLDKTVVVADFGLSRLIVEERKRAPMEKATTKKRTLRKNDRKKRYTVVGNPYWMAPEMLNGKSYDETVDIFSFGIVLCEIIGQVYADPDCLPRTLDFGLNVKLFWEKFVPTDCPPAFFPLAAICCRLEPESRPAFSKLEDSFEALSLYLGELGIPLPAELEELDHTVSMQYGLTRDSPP

[3] = target: T3, panel of 374 wild-type kinases (Homo sapiens, UniProt P54762); conditions: read-out: % Enzyme Activity (relative to DMSO controls), EPHB1
T3 construct: purchased Reaction Biology Corporation
T3 sequence (P54762 18-984): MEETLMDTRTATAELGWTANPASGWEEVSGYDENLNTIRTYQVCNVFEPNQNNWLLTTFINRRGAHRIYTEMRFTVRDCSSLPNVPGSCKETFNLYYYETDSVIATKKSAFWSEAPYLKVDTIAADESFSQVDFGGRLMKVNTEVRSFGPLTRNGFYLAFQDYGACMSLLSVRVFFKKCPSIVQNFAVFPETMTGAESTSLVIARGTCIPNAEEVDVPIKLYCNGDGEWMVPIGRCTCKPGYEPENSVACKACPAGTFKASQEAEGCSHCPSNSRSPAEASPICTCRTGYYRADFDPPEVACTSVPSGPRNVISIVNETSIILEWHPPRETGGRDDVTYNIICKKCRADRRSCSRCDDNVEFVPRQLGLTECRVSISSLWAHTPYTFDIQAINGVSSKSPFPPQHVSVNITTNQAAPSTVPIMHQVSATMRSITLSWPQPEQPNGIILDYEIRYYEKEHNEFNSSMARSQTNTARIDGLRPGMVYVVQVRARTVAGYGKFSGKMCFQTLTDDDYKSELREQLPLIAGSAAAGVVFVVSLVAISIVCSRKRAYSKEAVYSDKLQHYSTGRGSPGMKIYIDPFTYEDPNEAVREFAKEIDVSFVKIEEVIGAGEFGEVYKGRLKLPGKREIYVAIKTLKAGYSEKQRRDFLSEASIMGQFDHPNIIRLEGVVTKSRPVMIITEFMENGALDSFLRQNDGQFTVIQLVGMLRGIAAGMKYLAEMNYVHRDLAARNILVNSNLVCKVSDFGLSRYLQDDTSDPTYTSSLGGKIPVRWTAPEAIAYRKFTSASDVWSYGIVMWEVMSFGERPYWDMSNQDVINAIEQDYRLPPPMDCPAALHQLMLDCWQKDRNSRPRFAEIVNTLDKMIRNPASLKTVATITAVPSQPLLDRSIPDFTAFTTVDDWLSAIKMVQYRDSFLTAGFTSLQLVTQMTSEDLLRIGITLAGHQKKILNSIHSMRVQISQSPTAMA

[4] = target: T4, panel of 374 wild-type kinases (Homo sapiens, UniProt O75116); conditions: read-out: % Enzyme Activity (relative to DMSO controls), kinase ROCK2
T4 construct: purchased Reaction Biology Corporation
T4 sequence (O75116 whole entry): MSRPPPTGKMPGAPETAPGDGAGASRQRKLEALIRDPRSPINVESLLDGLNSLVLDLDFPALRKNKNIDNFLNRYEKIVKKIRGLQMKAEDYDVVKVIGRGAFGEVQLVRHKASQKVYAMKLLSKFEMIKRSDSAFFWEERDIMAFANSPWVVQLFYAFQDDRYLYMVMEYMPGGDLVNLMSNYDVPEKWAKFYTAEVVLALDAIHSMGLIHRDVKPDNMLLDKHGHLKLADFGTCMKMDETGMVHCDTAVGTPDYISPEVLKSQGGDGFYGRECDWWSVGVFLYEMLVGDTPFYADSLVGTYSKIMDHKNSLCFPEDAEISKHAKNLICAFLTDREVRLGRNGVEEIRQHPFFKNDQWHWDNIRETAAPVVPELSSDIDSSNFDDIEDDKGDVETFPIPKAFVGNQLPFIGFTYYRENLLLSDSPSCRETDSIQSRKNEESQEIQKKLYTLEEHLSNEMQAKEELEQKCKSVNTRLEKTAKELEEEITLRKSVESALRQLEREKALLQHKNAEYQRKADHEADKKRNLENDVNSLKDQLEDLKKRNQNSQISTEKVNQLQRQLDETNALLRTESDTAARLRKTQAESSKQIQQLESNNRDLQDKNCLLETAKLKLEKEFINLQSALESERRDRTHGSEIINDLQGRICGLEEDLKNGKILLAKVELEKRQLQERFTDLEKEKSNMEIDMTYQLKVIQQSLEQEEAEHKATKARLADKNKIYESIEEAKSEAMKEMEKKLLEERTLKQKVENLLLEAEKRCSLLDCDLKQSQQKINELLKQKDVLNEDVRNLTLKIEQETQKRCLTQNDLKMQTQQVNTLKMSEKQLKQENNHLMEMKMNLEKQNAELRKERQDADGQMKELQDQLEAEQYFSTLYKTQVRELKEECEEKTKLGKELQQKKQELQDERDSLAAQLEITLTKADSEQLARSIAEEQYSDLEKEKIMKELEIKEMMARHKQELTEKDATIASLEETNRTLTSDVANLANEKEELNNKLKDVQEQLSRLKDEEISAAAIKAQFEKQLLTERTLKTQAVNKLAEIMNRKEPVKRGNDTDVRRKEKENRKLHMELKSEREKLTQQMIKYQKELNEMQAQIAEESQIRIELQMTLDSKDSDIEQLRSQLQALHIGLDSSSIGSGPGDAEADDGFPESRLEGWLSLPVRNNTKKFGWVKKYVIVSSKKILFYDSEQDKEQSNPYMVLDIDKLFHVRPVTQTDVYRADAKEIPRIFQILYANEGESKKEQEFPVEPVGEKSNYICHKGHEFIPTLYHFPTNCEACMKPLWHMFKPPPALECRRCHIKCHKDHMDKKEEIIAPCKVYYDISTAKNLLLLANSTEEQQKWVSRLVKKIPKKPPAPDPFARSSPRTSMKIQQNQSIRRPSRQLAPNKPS

[5] = target: T5, panel of 374 wild-type kinases (Homo sapiens, UniProt Q9UBS0); conditions: read-out: % Enzyme Activity (relative to DMSO controls), kinase p70S6Kb/RPS6KB2
T5 construct: purchased Reaction Biology Corporation
T5 sequence (Q9UBS0 whole entry): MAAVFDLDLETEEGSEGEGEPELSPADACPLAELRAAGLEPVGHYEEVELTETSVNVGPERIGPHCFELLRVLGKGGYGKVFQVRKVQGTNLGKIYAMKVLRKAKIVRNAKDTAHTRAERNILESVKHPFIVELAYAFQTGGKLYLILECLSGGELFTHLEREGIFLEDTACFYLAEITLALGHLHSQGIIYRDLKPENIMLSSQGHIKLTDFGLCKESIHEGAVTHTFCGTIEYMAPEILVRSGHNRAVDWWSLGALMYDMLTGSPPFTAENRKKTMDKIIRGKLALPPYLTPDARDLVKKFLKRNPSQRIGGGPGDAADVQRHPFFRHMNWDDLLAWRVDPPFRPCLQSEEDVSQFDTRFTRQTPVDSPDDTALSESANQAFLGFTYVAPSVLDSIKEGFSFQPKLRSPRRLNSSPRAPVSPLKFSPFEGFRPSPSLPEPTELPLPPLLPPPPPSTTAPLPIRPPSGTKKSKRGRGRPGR

[6] = target: T6, panel of 374 wild-type kinases (Homo sapiens, UniProt Q9NQU5); conditions: read-out: % Enzyme Activity (relative to DMSO controls), kinase PAK6
T6 construct: purchased Reaction Biology Corporation
T6 sequence (Q9NQU5 whole entry): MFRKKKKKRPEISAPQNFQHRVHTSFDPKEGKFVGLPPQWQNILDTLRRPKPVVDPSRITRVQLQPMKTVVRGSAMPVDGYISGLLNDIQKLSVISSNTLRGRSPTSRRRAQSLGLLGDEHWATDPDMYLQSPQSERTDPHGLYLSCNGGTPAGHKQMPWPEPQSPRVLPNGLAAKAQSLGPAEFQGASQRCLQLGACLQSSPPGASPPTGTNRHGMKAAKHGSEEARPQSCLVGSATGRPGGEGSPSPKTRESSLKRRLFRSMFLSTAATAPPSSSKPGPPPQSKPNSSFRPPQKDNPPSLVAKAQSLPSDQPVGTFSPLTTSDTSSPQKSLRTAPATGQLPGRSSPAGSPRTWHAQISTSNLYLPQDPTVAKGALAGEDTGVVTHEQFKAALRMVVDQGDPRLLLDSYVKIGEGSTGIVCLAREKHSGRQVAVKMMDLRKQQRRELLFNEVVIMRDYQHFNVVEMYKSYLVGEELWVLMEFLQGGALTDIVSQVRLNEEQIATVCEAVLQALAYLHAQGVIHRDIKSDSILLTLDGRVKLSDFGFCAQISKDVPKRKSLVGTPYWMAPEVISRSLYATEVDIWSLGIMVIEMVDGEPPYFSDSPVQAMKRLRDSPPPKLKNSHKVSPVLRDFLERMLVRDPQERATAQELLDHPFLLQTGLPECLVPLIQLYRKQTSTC

| SMILES | remaining activity at 10 µM ([1]; 10 uM) | remaining activity at 10 µM ([2]; 10 uM) | remaining activity at 10 µM ([3]; 10 uM) | remaining activity at 10 µM ([4]; 10 uM) | remaining activity at 10 µM ([5]; 10 uM) | remaining activity at 10 µM ([6]; 10 uM) | remaining activity at 5 µM [1] | remaining activity at 5 µM [2] | remaining activity at 5 µM [3] | remaining activity at 5 µM [4] | remaining activity at 5 µM [5] | remaining activity at 5 µM [6] |
| --- | --- | --- | --- | --- | --- | --- | --- | --- | --- | --- | --- | --- |
| Cc1sc(C(=O)NC2COC2)cc1-n1cc(NC(=O)Nc2c(F)cccc2Cl)cn1 [Compound 27, 4-(4-(3-(2-chloro-6-fluorophenyl)ureido)-1H-pyrazol-1-yl)-5-methyl-N-(oxetan-3-yl)thiophene-2-carboxamide] | 79.3% | 113% | 100% | 93.6% | 98.9% | 99.9% |  |  |  |  |  |  |
| O=C(Nc1cnn(-c2csc(C(=O)NC3COC3)c2)c1)Nc1c(F)cccc1Cl [Compound 25, 4-(4-(3-(2-chloro-6-fluorophenyl)ureido)-1H-pyrazol-1-yl)-N-(oxetan-3-yl)thiophene-2-carboxamide] |  |  |  |  |  |  | 92.5% | 94% | 96.1% | 107% | 101% | 92.9% |
| O=C(Nc1cnn(-c2csc(C(=O)NC3COC3)c2)c1)Nc1ccccc1Cl [Compound 17, 4-(4-(3-(2-chlorophenyl)ureido)-1H-pyrazol-1-yl)-N-(oxetan-3-yl)thiophene-2-carboxamide] |  |  |  |  |  |  | 98.8% | 96.8% | 100% | 100% | 94.2% | 131% |
